Patent publication US20250009819A1, “NOVEL PROBIOTICS AND USE THEREOF” (PBLBIOLAB CO., LTD., priority 2021, published 2025)

Experiments:
[1] = Antioxidant activity (DPPH, in vitro); format: biochemical; settings: DPPH 0.2 mM; lactic acid bacteria suspension 1×10^8 CFU/ml; 37° C. 20 min
Protocol: DPPH (2,2-Diphenyl-1-picrylhydrazyl) was dissolved in ethanol to a concentration of 0.2 mM to prepare DPPH solution. Lactic acid bacteria suspension (1×10^8 CFU/ml) or vitamin C solution (1 g/ml) was added to 0.1 ml of the above DPPH solution and incubated at 37° C. for 20 min. The culture was centrifuged at 3000 rpm for 5 min to obtain a supernatant. The absorbance of the supernatant was then measured at 517 nm and the antioxidant activity of the lactic acid bacteria was calculated.

TNF-α = TNF-α expression in LPS-treated macrophages (ELISA); format: cell-based, C57BL/6 mice; settings: macrophages treated with lactic acid bacteria and LPS for 24 hours
Protocol: (§1) C57BL/6 mice (male, 6 weeks old, 20-23 g) were subjected to an intraperitoneal injection of 2 ml of sterile 4% thioglycolate solution, and after 96 hours, the mice were anesthetized and injected with 8 ml of RPMI 1640 medium through the peritoneal cavity. Then, after 5-10 minutes, the RPMI medium (macrophages) in the mouse peritoneal cavity was extracted, centrifuged at 1000 g for 10 minutes, and washed again with RPMI 1640 medium twice. Macrophages were seeded in 24-well plates at a count of 0.5×10^6 in each well, and treated with lactic acid bacteria and LPS, an inflammatory response-inducing substance, for 24 hours. TNF-α and IL-10 cytokine expression amount in the culture supernatant was then measured by ELISA Kit.

IL-10 = IL-10 expression in LPS-treated macrophages (ELISA); format: cell-based, C57BL/6 mice; settings: macrophages treated with lactic acid bacteria and LPS for 24 hours
Protocol: as §1

BDNF = BDNF expression in SH-SY5Y cells; format: cell-based; settings: LPS 200 ng/ml; lactic acid bacteria 1×10^4 CFU/ml; 24 h
Protocol: SH-SY5Y cells obtained from the Korean Cell Line Bank were cultured in DMEM medium supplemented with 10% FBS and 1% antibiotics, and dispensed at 2×10^6 cells per well in a 12-well plate. Then, LPS (200 ng/ml) was added to each well along with lactic acid bacteria (1×10^4 CFU/ml) and incubated for 24 h. The cells and supernatants were collected, sonicated and centrifuged, and the amount of BDNF in the supernatant was measured by ELISA kit.

Neuropeptide Y (NPY) = Neuropeptide Y (NPY) expression in PC12 phaeochromocytoma cells; format: cell-based; settings: LPS 200 ng/ml; lactic acid bacteria 1×10^4 CFU/ml; 24 hr
Protocol: PC12 cells obtained from the Korean Cell Line Bank were cultured in DMEM medium supplemented with 10% FBS and 1% antibiotics, and dispensed at 1×10^6 cells per well in a 12-well plate. Then, LPS (200 ng/ml) was added to each well along with lactic acid bacteria (1×10^4 CFU/ml) and incubated for 24 hr. The cells and supernatants were collected, sonicated and centrifuged, and the amount of NPY in the supernatant was measured by ELISA kit.

Clostridium difficile = Clostridium difficile proliferation in gut microbiota (PCR); format: cell-based; settings: human feces culture; lactic acid bacteria 1×10^6 CFU/mL; anaerobic 24 hr
Protocol: Fresh human feces were suspended in anaerobic medium (GAM, Nissui Pharmaceutical Co., Ltd., Japan) and allowed to stand for 10 min. The supernatant was diluted with 10,000-fold anaerobic medium, 0.05 mL of the dilution was transplanted into 5 mL of freshly made anaerobic medium, and lactic acid bacteria (1×10^6 CFU/mL) were implanted and incubated anaerobically for 24 hr. This culture medium was divided into two, one was centrifuged (5000 rpm, 20 minutes), the precipitated DNA was isolated using the QIAamp DNA stool mini kit (Qiagen, Germany), and Clostridium difficile (primer: forward, 5′-[…]-3′ (SEQ ID NO: 4); reverse, 5′-[…]-3′ (SEQ ID NO: 5) was quantified by PCR. The reaction product was first treated at 95° C. for 30 seconds, followed by 42 cycles of 5 seconds at 95° C. and 30 seconds at 72° C. for analysis. In addition, one culture medium was sonicated, centrifuged, and filter-sterilized, and the amount of LPS in the supernatant was measured using an ELISA kit.

gut microbiota = experiment: LPS production in gut microbiota (ELISA); format: cell-based; settings: human feces culture; lactic acid bacteria 1×10^6 CFU/mL; anaerobic 24 hr
Protocol: Fresh human feces were suspended in anaerobic medium (GAM, Nissui Pharmaceutical Co., Ltd., Japan) and allowed to stand for 10 min. The supernatant was diluted with 10,000-fold anaerobic medium, 0.05 mL of the dilution was transplanted into 5 mL of freshly made anaerobic medium, and lactic acid bacteria (1×10^6 CFU/mL) were implanted and incubated anaerobically for 24 hr.

Substance | Antioxidant activity [1] | Macrophage Inhibition of TNF-α expression (TNF-α) | Macrophage Induction of IL-10 expression (IL-10) | SHSY5Y cell Induction of BDNF expression (BDNF) | PC12 cell Induction of NPY expression (Neuropeptide Y (NPY)) | Gut microbiota Inhibition of difficile bacteria proliferation (Clostridium difficile) | Gut microbiota Inhibition of LPS production (gut microbiota)
Lactobacillus casei NK195 | + (weakly (+; >20-60%)) | + (weakly (+; >20-60%)) | + (weakly (+; >20-60%)) | − (not or less than 20% (−; <20%)) | − (not or less than 20% (−; <20%)) | + (weakly (+; >20-60%)) | − (not or less than 20% (−; <20%))
Lactobacillus casei NK196 | ++ (strongly (++; >60-90%)) | − (not or less than 20% (−; <20%)) | − (not or less than 20% (−; <20%)) | − (not or less than 20% (−; <20%)) | + (weakly (+; >20-60%)) | + (weakly (+; >20-60%)) | + (weakly (+; >20-60%))
Lactobacillus gasseri NK185 | ++ (strongly (++; >60-90%)) | + (weakly (+; >20-60%)) | + (weakly (+; >20-60%)) | − (not or less than 20% (−; <20%)) | + (weakly (+; >20-60%)) | + (weakly (+; >20-60%)) | − (not or less than 20% (−; <20%))
Lactobacillus gasseri NK186 | + (weakly (+; >20-60%)) | + (weakly (+; >20-60%)) | + (weakly (+; >20-60%)) | − (not or less than 20% (−; <20%)) | − (not or less than 20% (−; <20%)) | + (weakly (+; >20-60%)) | + (weakly (+; >20-60%))
Lactobacillus gasseri NK187 | + (weakly (+; >20-60%)) | + (weakly (+; >20-60%)) | − (not or less than 20% (−; <20%)) | + (weakly (+; >20-60%)) | − (not or less than 20% (−; <20%)) | + (weakly (+; >20-60%)) | + (weakly (+; >20-60%))
Lactobacillus johnsonii NK202 | + (weakly (+; >20-60%)) | + (weakly (+; >20-60%)) | + (weakly (+; >20-60%)) | + (weakly (+; >20-60%)) | + (weakly (+; >20-60%)) | + (weakly (+; >20-60%)) | + (weakly (+; >20-60%))
Lactobacillus johnsonii NK203 | + (weakly (+; >20-60%)) | + (weakly (+; >20-60%)) | + (weakly (+; >20-60%)) | − (not or less than 20% (−; <20%)) | − (not or less than 20% (−; <20%)) | − (not or less than 20% (−; <20%)) | − (not or less than 20% (−; <20%))
Lactobacillus mucosae NK204 | + (weakly (+; >20-60%)) | − (not or less than 20% (−; <20%)) | − (not or less than 20% (−; <20%)) | − (not or less than 20% (−; <20%)) | − (not or less than 20% (−; <20%)) | + (weakly (+; >20-60%)) | − (not or less than 20% (−; <20%))
Lactobacillus mucosae NK205 | + (weakly (+; >20-60%)) | − (not or less than 20% (−; <20%)) | − (not or less than 20% (−; <20%)) | − (not or less than 20% (−; <20%)) | + (weakly (+; >20-60%)) | − (not or less than 20% (−; <20%)) | − (not or less than 20% (−; <20%))
Lactobacillus paracasei NK189 | + (weakly (+; >20-60%)) | + (weakly (+; >20-60%)) | − (not or less than 20% (−; <20%)) | − (not or less than 20% (−; <20%)) | − (not or less than 20% (−; <20%)) | + (weakly (+; >20-60%)) | + (weakly (+; >20-60%))
Lactobacillus plantarum NK181 | + (weakly (+; >20-60%)) | + (weakly (+; >20-60%)) | − (not or less than 20% (−; <20%)) | − (not or less than 20% (−; <20%)) | + (weakly (+; >20-60%)) | + (weakly (+; >20-60%)) | − (not or less than 20% (−; <20%))
Lactobacillus plantarum NK182 | ++ (strongly (++; >60-90%)) | − (not or less than 20% (−; <20%)) | − (not or less than 20% (−; <20%)) | − (not or less than 20% (−; <20%)) | − (not or less than 20% (−; <20%)) | ++ (strongly (++; >60-90%)) | − (not or less than 20% (−; <20%))
